Experiments:
[1] = test system: HLA-A*02:01 transgenic mouse; test: Induction of antigen-specific effector memory CTL, flow cytometry (Test 14); type: in vivo; settings: twice; for induction of antigen peptide-specific effector memory CTL (CD8+ tetramer+ CD127+ CD62L-): 325 ng per body in vaccine b compared with the vaccine without compound
Experimental: The activity of a vaccine comprising the compounds prepared in Examples 2 and 3 for inducing effector memory CTL was evaluated through the cell surface antigen expression analysis of CTL by flow cytometry.
Specifically, vaccine a prepared like Test 6 was injected to a HLA-A*02:01 transgenic mouse intradermally at the tail base area in an amount for administering 300 μg of Compound of formula 4 per body and 225 μg of Peptide SEQ ID No. 3 per body. The administrations were done twice, which had one week interval. Or, a vaccine prepared by adding the compound prepared in Example 3 to vaccine a was injected to the mouse intradermally at the tail base area in an amount for administering 300 μg of Compound of formula 4 per body, 225 μg of Peptide SEQ ID No. 3 per body, and 32.5 ng of the compound prepared in Example 3 per body. The administrations were done twice, which had one week interval. Or, vaccine b prepared like Test 8 was injected to the mouse intradermally at the tail base area in an amount for administering 300 μg of Compound of formula 4 per body and 225 μg of Peptide SEQ ID No. 3 per body. Or a vaccine prepared by adding the compound prepared in Example 3 to vaccine b was injected to the mouse intradermally at the tail base area in an amount for administering 300 μg of Compound of formula 4 per body, 225 μg of Peptide SEQ ID No. 3 per body, and 325 ng of the compound prepared in Example 3 per body. Or a vaccine prepared by adding the compound prepared in Example 2 to vaccine b was injected to the mouse intradermally at the tail base area in an amount for administering 300 μg of Compound of formula 4 per body, 225 μg of Peptide SEQ ID No. 3 per body, and 325 ng of the compound prepared in Example 2 per body. […] 1, a PE-Cy7-labeled anti-CD127 antibody, and a PerCP-Cy5.5-labeled anti-CD62L antibody, and analyzed for peptide-specific effector memory CTLs with a flow cytometer. The ratio of CD8-positive tetramer-positive CD127-positive CD62L-negative fraction in the lymphocyte fraction was calculated as peptide-specific effector memory CTL.

[2] = test system: HLA-A*02:01 transgenic mouse; test: In vivo adjuvant activity, CTL induction with vaccine a, IFNγ ELISPOT (Test 6); settings: for CTL counts responsive to Peptide SEQ ID No. 1 (IFNγ-producing cells) / CTL counts responsive to Peptide SEQ ID No. 5 (IFNγ-producing cells): compound added to vaccine a versus vaccine a, intradermal, Example 3 32.5 ng per body, Reference example 14 17.5 ng per body, one week later
Experimental: The in vivo adjuvant activity of the compound of Example 3 and the compound of Reference example 14 was evaluated in the following procedure. To a cocktail vaccine comprising Compound of formula 4 prepared in Reference example 9 and Peptide SEQ ID No. 3 prepared in Reference example 3 with a preliminarily-emulsified composition (hereinafter, referred to as “vaccine a”) was added the compound prepared in Example 3 or the compound prepared in Reference example 14 respectively to prepare each vaccine. The vaccine was administered to a HLA-A*02:01 transgenic mouse, and the adjuvant activity of each vaccine was evaluated by the method of testing antigen-specific cytotoxic T-lymphocyte (CTL) induction. The RMFPNAPYL (SEQ ID No. 1) in Compound of formula 4 and VLDFAPPGA (SEQ ID No. 5) in Peptide SEQ ID No. 3 correspond to antigen peptides derived from an HLA-A*02:01-restricted WT1 protein.
HLA-A*02:01 transgenic mouse (C57BL/6CrHLA-A2.1DR1) lacks mouse MHC, and instead expresses a chimeric HLA of a human MHC (HLA-A*02:01) and a mouse MHC (H-2D^b), and HLA-DRB1*01:01. The mouse can evaluate the pharmacological activity of immunotherapeutic agents including a peptide which induces CTLs in HLA-A*02:01-positive human (Eur J Immunol. 2004; 34: 3060-9). In addition, the mouse can also evaluate the induction of a helper peptide which can bind to a human HLA-DRB1*01:01 to induce a helper T-cell, and the enhancing effect for inducing CTLs.
The character for inducing CTLs specific to the antigen peptide (SEQ ID No. 1 or SEQ ID No. 5) by vaccine a was evaluated by measuring whether IFNγ can be produced upon stimulation of splenocytes from the mouse with the peptide. In addition, the character for exerting in vivo adjuvant activity by the compound in Example 3 or the compound in Reference example 14 was evaluated by comparing the number of CTLs induced by vaccine a and the number of CTLs induced by the vaccine prepared by adding the compound prepared in Example 3 or the compound in Reference example 14 to vaccine a, and checking presence or absence of the increase on the number.
0.312 g of sodium dihydrogen phosphate dihydrate was dissolved in 80 g of water for injection. 14.0 g of ethyl oleate, 14.0 g of octyldodecyl myristate, 2.0 g of sorbitan monooleate, 2.8 g of glyceryl monooleate, 0.4 g of polyoxyethylene hydrogenated castor oil 20, and 0.4 g of glycerin were mixed. 2.354 mL of the mixture (corresponding to 2.077 g) was put into a test tube, and 0.396 mL of the aqueous sodium dihydrogen phosphate (corresponding to 0.396 g) was gradually added into the test tube which was being stirred with a mixer (ULTRA-TURRAX T10, IKA, or Touch Mixer MT-51, Yamato Scientific) to emulsify the mixture in the test tube. The obtained emulsion was referred to as preliminary emulsified composition. The amount of the preparation was adjusted as appropriate.
Compound of formula 4 and Peptide SEQ ID No. 3 were dissolved in DMSO, and then diluted with water for injection to concentrations of Compound of formula 4 of 3 mg/ml and Peptide of SEQ ID No. 3 of 2.25 mg/ml. The diluted peptide solution was mixed and emulsified with an equal volume of the above preliminary emulsified composition to prepare vaccine a. Vaccine a was injected to mice intradermally at the tail base area in an amount for administering 300 μg of Compound of formula 4 per body and 225 μg of Peptide SEQ ID No. 3 per body. Or, in the step of preparing vaccine a, the compound prepared in Example 3 was added to the diluted peptide solution to prepare a vaccine, and the prepared vaccine was injected to mice intradermally at the tail base area in an amount for administering 300 μg of Compound of formula 4 per body, 225 μg of Peptide SEQ ID No. 3 per body, and 32.5 ng of the compound prepared in Example 3 per body. […]

[3] = Example 3 32.5 ng per body versus Reference example 14 17.5 ng per body, added to vaccine

Compound	induction of antigen peptide-specific effector memory CTL (CD8+ tetramer+ CD127+ CD62L-) [1]	induction of peptide-specific effector memory CTL (CD8+ tetramer+ CD127+ CD62L-) ([1]; 32.5 ng per body in vaccine a compared with vaccine a)	increase of the CTL counts (Peptide SEQ ID No. 1) compared with Reference example 14 [2, 3]	increase of the CTL counts (Peptide SEQ ID No. 5) compared with Reference example 14 [2, 3]	CTL counts responsive to Peptide SEQ ID No. 1 (IFNγ-producing cells) [2]	CTL counts responsive to Peptide SEQ ID No. 5 (IFNγ-producing cells) [2]
CCCCOc1nc(N)c2[nH]c(=O)n(Cc3ccc(CN(C)CCOCCOCCOCCOCCO)nc3)c2n1 [Example 2, 6-amino-2-butoxy-9-{[6-(16-hydroxy-2-methyl-5,8,11,14-tetraoxa-2-azahexadecan-1-yl)pyridin-3-yl]methyl}-7,9-dihydro-8H-purin-8-one-trifluoroacetate]	high frequency	–	–	–	–	–
CCCCOc1nc(N)c2[nH]c(=O)n(Cc3ccc(CN(C)CCOCCOCCOCCOCCO)cc3)c2n1 [Example 3, 6-amino-2-butoxy-9-{[4-(16-hydroxy-2-methyl-5,8,11,14-tetraoxa-2-azahexadecan-1-yl)phenyl]methyl}-7,9-dihydro-8H-purin-8-one]	high frequency	high frequency	more	more	increased	increased
CCCCOc1nc(N)c2[nH]c(=O)n(Cc3ccc(CNC)cc3)c2n1 [Reference example 14, reference compound]	–	–	–	–	increased	increased

Source: patent US20220241409A1, “WATER SOLUBLE ADJUVANT AND COMPOSITION CONTAINING SAME” (Sumitomo Dainippon Pharma Co., Ltd., priority 2019, published 2022)
